The values that follow come from patent US20160143910A1, “METHODS OF TREATING CANCER AND PREVENTING CANCER DRUG RESISTANCE” (GENENTECH, INC., priority 2013, published 2016).

In assay [1] the test system is SW480 cells. Nature of the assay: DTP model of CRC cell line SW480 with 5-fluorouracil and SN-38. Format: cell-based. Here is the method:
A model for resistance to standard-of-care chemotherapy for colorectal cancer (CRC) was developed by treating CRC cell line SW480 with a combination of 5-fluorouracil and the irinotecan active metabolite SN-38 in a ratio of their relative IC50 values (33 μM 5-FU and 6 ηM SN-38) continuously for 16 days, followed by drug withdrawal. The cells progressively die during this treatment period. The remaining DTP cells constitute approximately 8% of the initial cell population and appear large and non-dividing. After drug withdrawal, cells continue to die for several more days, but then re-initiate proliferation and expand to form DTEP colonies by about 2 weeks in the absence of drugs.

Assay [2] deals with PC9 cells. As to the kind of experiment: Drug tolerant persister (DTP) assay, PC9 with Tarceva (erlotinib). The assay is classed as cell-based, human. The note with it: stained 30 days after. The text has this:
[…] Viable cells remaining attached on the dish at the end of the third round of relevant drug treatment were considered to be DTPs, and were collected for analysis.
(§1) The structures of CPI-382 and CPI-383 are provided below.

Assay [3] concerns A375. Nature of the assay: Cell viability assay (cell titer Glo), A375. Format: cell-based. As to conditions: Homo sapiens, A-375, 96 h; A375, 4 days of incubation, 8 doses. The method, then:
(§2) One goal was to identify a cell line that would be sensitive to vemurafenib and amenable to DTP formation. For this, a set of 18 melanoma cell lines were tested by standard cell viability assay using cell titer Glo readout after 4 days of incubation with 8 different doses of vemurafenib. The results identified 3 melanoma cell lines (A375, Colo829 and HT144) with GI50's below 600 nM. All 3 of these cell lines were b raf mutant. After experiments with all these cell lines, Colo-829 was selected as the preferred cell line for DTP establishment.
(§3) 1.1 Identifying melanoma cell lines sensitive to Vemurafenib • Day 0: 1000 cells/well were plated in 100 μl total volume in a 96 well flat bottom plate. • Day 1: The cells were treated with vemurafenib. The highest concentration in the assay was 20 μM and was diluted 3 fold down with the lowest concentration being 9 nM. • Day 5: 100 μl of cell titer glo was added to each well and the plates read on Envision. The data was plotted using graphpad prism. 1.2 DTP establishment in melanoma cell lines • Day 0: Cells (4.5×10^6 cells/P150 dishes) were plated, 4 plates/cell line. • Day 2: All the cell lines were 60-80% confluent. […] The cells in these plates were counted and ⅛th the numbers were replated in 2 new P150 dishes. […] The cells were counted and the percentage of cells remaining on the Vemurafenib treated dish vs the control dish were identified. […]
In general terms: Cellular ATP, detected with luciferase, serves as a proxy for viable cell number.

Assay [4] deals with Colo829. As to the kind of experiment: Cell viability assay (cell titer Glo), Colo829. Format: cell-based. As to conditions: Homo sapiens, COLO-829, 96 h; Colo829, 4 days of incubation, 8 doses. Here is the method: as §2, §3
The subject of assay [5] is HT144. Nature of the assay: Cell viability assay (cell titer Glo), HT144. Format: cell-based. The note with it: Homo sapiens, HT-144, 96 h; HT144, 4 days of incubation, 8 doses. The method, then: as §2, §3
For assay [6], the system named is H3K4me3. Nature of the assay: H3K4me3 MSD ELISA in PC9. The assay is classed as cell-based, human. As to conditions: PC9 (NSCLC). The method, then: (§4) Cells were rinsed with PBS and MSD Buffer AT (10 mM HEPES, pH 7.9, 5 mM MgCl2, 0.25M sucrose, Benzonase (1:10000), 1% Triton X-100 supplemented with fresh 1× Protease Inhibitor cocktail and 1 mM PMSF/AEBSF) was added. Cells were lysed for 30 minutes and then 10 uL 5M NaCl was added and allowed to lyse on ice for another 15 minutes. Lysates were rinse with 150 uL ice-cold NO Salt NO detergent buffer (20 mM Tris pH 7.5, 1 mM EDTA, 1 mM EGTA, supplemented with fresh 1× Protease Inhibitor cocktail and 1 mM PMSF).
(§5) MSD plates (Catalog #L15XA-3) were then coated with Capture Antibody Anti-histone (Millipore Catalog # MAB3422) for H3K4me3: 2 ug/mL final concentration and/or plates testing for H3: 1 ug/mL final concentration. MSD plates were then blocked with 5% Blocker A (MSD Catalog #R93AA-2). Lysates to MSD plates were subsequently transferred, sealed and incubated with shaking at RT for 2:30 hours and then incubated with detection antibody in 1% Blocker A in TBST for 30 min (anti-Histone H3 (#4499 from Cell Signaling) at 0.125 ug/mL and/or anti-K4Me3 (#9751 from Cell Signaling) at 1 ug/mL). Sulfo-tag rabbit antibody (MSD Catalog# R32AB-1) in 1% Blocker A in TBST was added and incubated for 1 h at RT. […] 1× Read Buffer (MSD Catalog #R92TD-3) was added and read on MSD SECTOR® Imager 2400. Data was analyzed data using MACRO template provided using samples treated with DMSO as 0% or Min. […]

Assay [7] concerns H3K4me3. As to the kind of experiment: H3K4me3 MSD ELISA in SKBR3. As to conditions: SKBR3 (breast cancer). The assay is classed as cell-based. The method, then: as §4, §5
For orientation: An ELISA detects its analyte on a solid surface through an enzyme-linked reagent.

The subject of assay [8] is H3K4me3. As to the kind of experiment: H3K4me3 MSD ELISA in H441. Format: cell-based. As to conditions: H441 (NSCLC). Here is the method:
as §4, §5

Assay [9] relates to H3K4me3. As to the kind of experiment: H3K4me3 MSD ELISA in H596. The assay is classed as cell-based. As to conditions: H596 (lung epithelial adenosquamous carcinoma). The method, then: as §4, §5
Assay [10] deals with PC9 cells. As to the kind of experiment: Cell number with KDM5 antagonist alone, PC9. The assay is classed as cell-based, human. As to conditions: after 96 hours in drug, concentrations below 50 uM. The method, then:
(§6) 3×10^4 cells were plated in each well of a 12-well cluster dish. 24 hours after plating, media was removed and replaced with media containing drugs. Fresh media was replaced every 2 days until untreated cells reached confluence. Media was then removed, cells were washed with Phosphate Buffered Saline (PBS), and then fixed for 15 min with 4% formaldehyde in PBS. Cells were then washed with PBS and stained with the fluorescent nucleic acid stain, Syto60 (1 nM in PBS; Molecular Probes) for 15 min. Dye was removed, cell monolayers were washed with PBS, and fluorescence quantitation was carried out at 700 nm with an Odyssey Infrared Imager (Li-Cor Biosciences).

Assay [11] has as its system SKBR3. Nature of the assay: Cell number with KDM5 antagonist alone, SKBR3. The assay is classed as cell-based. As to conditions: after 96 hours in drug, concentrations below 25 uM. The method, then: as §6
Assay [12] has as its system SKBR3. Nature of the assay: Drug tolerant persister (DTP) assay, SKBR3. The assay is classed as cell-based. The note with it: in combination with the recited cancer therapy agent. Here is the method: (§7) Drug-sensitive cells were treated with relevant drug as described herein at concentrations exceeding 100 times the established IC50 values, for three rounds, with each treatment lasting 72 hours. Viable cells remaining attached on the dish at the end of the third round of relevant drug treatment were considered to be DTPs, and were collected for analysis.
as §1

The subject of assay [13] is HCC1954. Nature of the assay: Drug tolerant persister (DTP) assay, HCC1954. As to conditions: HCC1954 (breast cancer); in combination with the recited cancer therapy agent. Format: cell-based. The method, then:
as §7, §1

In assay [14] the test system is H441 cells. Nature of the assay: Drug tolerant persister (DTP) assay, H441. The note with it: in combination with the recited cancer therapy agent. Format: cell-based. Here is the method: Specifically for carboplatin and paclitaxel DTPs, Cells were plated and grown to 60-70% confluency then treated with Carboplatin (5.38 uM) and Paclitaxel (1.25 uM) for 5 cycles of 24 hours on 48 hours off drug. DTPs were collected and analyzed 1 week after the final dose of chemotherapy.
as §1

For assay [15], the system named is PC9 cells. Nature of the assay: Gamma irradiation of PC9 cells after KDM5 inhibitor pretreatment. Format: cell-based, human. Here is the method: For Gamma irradiation the cells were treated for 5 days with inhibitors replated at 500,000 cells with the inhibitor. After cell attachment (approximately 8 hours), the cells were irradiated, and cells were counted 5 days after irradiation.

Setting [16] is: nuc-RED PC9, various concentrations for 5 days prior to 1 uM Tarceva (erlotinib).

Take `Nc1ncn([C@@H]2O[C@H](CO)[C@@H](O)[C@H]2O)c(=O)n1` [5-azacytidine]: the DTP survival entry in assay [1] (0.2 μM) is recorded as “does not affect DTP survival”.
As to `O=c1[nH]c(Oc2cnn(Cc3ccccc3)c2)nc2cnccc12` [CPI-382], in assay [2] (setting [16]), the “development of drug tolerant persisters” value is “capable of reducing the development of drug tolerant persisters”.
For `O=c1[nH]c(Oc2cnn(Cc3ccccc3)c2)nc2ncccc12` [CPI-383], in [2] (setting [16]), the “development of drug tolerant persisters” value is recorded as “no significant effect”.
Take `CC(/C=C/C(=O)NO)=C\[C@@H](C)C(=O)c1ccc(N(C)C)cc1` [Trichostatin A]: the DTP survival entry in assay [1] (20 ηM) is recorded as “does not affect DTP survival”.
With `CCCS(=O)(=O)Nc1ccc(F)c(C(=O)c2c[nH]c3ncc(-c4ccc(Cl)cc4)cc23)c1F` [vemurafenib, Vemurafenib], the GI50 in assay [3], in assay [4] and in assay [5] was under 600 nM each time.
With CPI-455, the H3K4me3 result in [6], in assay [7], in assay [8] and in [9] was “increase H3K4me3” in each case. Also, the cell number entry in [10] and in assay [11] was “did not substantially affect cell number” in each case. For the same molecule, the “development of drug tolerant persisters” value in [2] (PC9, in combination with cancer therapy agent, 25 uM for 5 days prior to 1uM Tarceva) is “capable of inhibiting the development of drug tolerant persisters”; in assay [12] it was “capable of inhibiting the development of drug tolerant persisters”; in [13], “capable of inhibiting the development of drug tolerant persisters”; in assay [14], “capable of inhibiting the development of drug tolerant persisters”; in assay [15] (in combination with radiation therapy), “capable of inhibiting the development of drug tolerant persisters”. Besides, the “number of cells following γ-irradiation” value in assay [15] (PC9, pretreatment for 5 days, compared to inactive controls) is “decreases the number of cells following γ-irradiation”.

For orientation: GI50 means the concentration giving 50% growth inhibition. A lower GI50 goes with greater sensitivity of the cells.
